In patent US9745335B2 (Blirt S.A., priority 2012, dated 2017):
In brackets after ≈: the same amount, converted by molar mass. Where two headings read alike, the source gives them in different places.

Experiments:
[1] = tested on: Candida tropicalis KKP 334; experiment: antifungal activity in vitro, serial dilution in RPMI 1640; format: cell-based
Protocol: (§1) For the determination of antifungal activity in vitro we used method of serial dilution in buffered medium RPMI 1640, pH 7.0, in a 96-wells microplates, according to the standard procedure (National Committee for Clinical Laboratory Standards. Reference method for broth dilution antifungal susceptibility testing of yeast, approved standard, 2nd ed. M27-A2 vol. 22 Wayne, Pa., 2002). The optical density of cells suspension was measured using a microplates reader (Victor^3, Perkin-Elmer) at the wavelength λ=531 nm (A531). On the basis of obtained results the diagrams of relation between A531 values and concentration of examined compound were made.

[2] = tested on: Candida lusitaniae DSM 70102; experiment: as above; format: cell-based
Protocol: as §1

[3] = tested on: Candida albicans ATCC 10231; experiment: as above; format: cell-based
Protocol: as §1

[4] = tested on: Candida krusei DSM 6128; experiment: as above; format: cell-based
Protocol: as §1

[5] = tested on: Saccharomyces cerevisiae ATCC 9763; experiment: as above; format: cell-based; settings: RPMI 1640, pH 7.0; for Antifungal activity IC50: Saccharomyces cerevisiae ATCC 9763 (first head over MIC and IC50); for Antifungal activity MIC: Saccharomyces cerevisiae ATCC 9763
Protocol: as §1

[6] = tested on: Candida glabrata DSM 11226; experiment: as above; format: cell-based
Protocol: as §1

[7] = tested on: Human erythrocytes; experiment: hemotoxicity determination (hemolytic activity); format: cell-based
Protocol: The hemotoxicity determination was carried out by the serial dilutions method, according to the procedure described earlier (Slisz, M., et al., E., J Antibiot 57: 669-678 (2004). Human erythrocytes were suspended in the solution of saline to obtain a cell density of suspension 2×10^7/ml. Suitable amounts of diluted solutions of compounds were added to the cell suspension in tubes and were incubated at 37° C. for 30 minutes and then centrifuged (1700×g, 10 min, 4° C.). The concentration of hemoglobin in supernatant after centrifugation of erythrocytes suspension were determined by measuring the absorbance at wavelength λ=540 nm (A540). The maximum level of hemolysis was obtained after incubation of cells suspension in the presence of 0.1% Tritone X-100 (control sample). […] From these graphs, the EH50 values were read which are the interpolated concentrations of compound, for which the A540 value is exactly 50% of the A540 value measured for the control sample.

[8] = tested on: LLC-PK1 cells; experiment: cytotoxic activity against mammalian cells in tissue culture (MTT); format: cell-based, pig
Protocol: (§2) All media contained 100 μg/ml of penicillin G and streptomycin. 24-wells microplates containing appropriate medium were inoculated with the cells in amount of 1.2×10^4 cells/well and allowed to stand overnight. Next, tested compounds as solution in dimethylsulfoxide (DMSO) were added in volume of 10 μl (serial 2× dilutions). To control well 10 μl of DMSO was added. Microplates with cell suspensions were incubated for 120 h at temperature 37° C. at atmosphere of 95%/5% CO2. After incubation, to all wells 200 μl of solution of 3-(4,5-dimethyltiazole-2-yl)-2,5-diphenylotetrazole bromide (MTT) in PBS (4 mg/ml) was added and plates were further incubated for 4 h at 37° C. Next, to dissolve crystals of formazane 1 ml of DMSO was added and absorption of solutions was measured at the wavelength λ=540 nm (A540), using a microplates reader (Victor^3, Perkin-Wallac). […] From these graphs IC50 values were read, that is concentration of tested compound in the presence at which A540 value is half of A540 value measured in the control sample.

[9] = tested on: HepG2 cells; experiment: as above; format: cell-based, human
Protocol: as §2

[10] = tested on: CCRF-CEM cells; experiment: as above; format: cell-based, human
Protocol: as §2

[11] = human erythrocytes, 37° C., 30 minutes

Compound: C[C@@H]1[C@H](O)[C@@H](C)/C=C/C=C/C=C/C=C/C=C/C=C/C=C/[C@H](O[C@@H]2O[C@H](C)[C@@H](O)[C@H](NC(=S)NCCN3CCOCC3)[C@@H]2O)C[C@@H]2O[C@](O)(C[C@@H](O)C[C@@H](O)[C@H](O)CC[C@@H](O)C[C@@H](O)CC(=O)O[C@H]1C)C[C@H](O)[C@H]2C(=O)O [Compound A24, N-{[3-(2-morpholin-1-yl)ethyl]thioureidyl}amphotericin B]
- Antifungal activity MIC [1]: 2 µg/mL
- Antifungal activity MIC [2]: 2 µg/mL
- Antifungal activity MIC [3]: 2 µg/mL
- Antifungal activity MIC [4]: 4 µg/mL
- Antifungal activity IC50 [5]: 1.13 µg/mL
- Antifungal activity MIC [5]: 2 µg/mL
- Antifungal activity MIC [6]: 4 µg/mL
- Hemotoxi EH50 [7]: >100 µg/mL
- IC50 (cytotoxic activity) [8]: >100 µg/mL
- IC50 (cytotoxic activity) [9]: >100 µg/mL
- IC50 (cytotoxic activity) [10]: 80.9 ± 2.3 µg/mL (≈ 73.8 µM)

Compound: C[C@@H]1[C@H](O)[C@@H](C)/C=C/C=C/C=C/C=C/C=C/C=C/C=C/[C@H](O[C@@H]2O[C@H](C)[C@@H](O)[C@H](NC(=S)NCCN3CCCC3)[C@@H]2O)C[C@@H]2O[C@](O)(C[C@@H](O)C[C@@H](O)[C@H](O)CC[C@@H](O)C[C@@H](O)CC(=O)O[C@H]1C)C[C@H](O)[C@H]2C(=O)O [Compound A27, N-{[3-(2-pyrrolidin-1-yl)ethyl]thioureidyl}amphotericin B]
- Antifungal activity MIC [1]: 2 µg/mL
- Antifungal activity MIC [2]: 2 µg/mL
- Antifungal activity MIC [3]: 2 µg/mL
- Antifungal activity MIC [4]: 4 µg/mL
- Antifungal activity IC50 [5]: 0.75 µg/mL
- Antifungal activity MIC [5]: 2 µg/mL
- Antifungal activity MIC [6]: 4 µg/mL
- Hemotoxi EH50 [7]: >100 µg/mL
- IC50 (cytotoxic activity) [8]: >100 µg/mL
- IC50 (cytotoxic activity) [9]: >100 µg/mL
- IC50 (cytotoxic activity) [10]: >100 µg/mL

Compound: CCN(CC)CCNC(=S)N[C@@H]1[C@H](O)[C@H](O[C@H]2/C=C/C=C/C=C/C=C/C=C/C=C/C=C/[C@H](C)[C@@H](O)[C@@H](C)[C@H](C)OC(=O)C[C@H](O)C[C@H](O)CC[C@@H](O)[C@H](O)C[C@H](O)C[C@]3(O)C[C@H](O)[C@@H](C(=O)O)[C@H](C2)O3)O[C@H](C)[C@H]1O [Compound A25, N-{3-[2-(N,N-diethylamino)ethyl]thioureidyl}amphotericin B]
- Antifungal activity MIC [1]: 2 µg/mL
- Antifungal activity MIC [2]: 2 µg/mL
- Antifungal activity MIC [3]: 2 µg/mL
- Antifungal activity MIC [4]: 4 µg/mL
- Antifungal activity IC50 [5]: 0.85 µg/mL
- Antifungal activity MIC [5]: 2 µg/mL
- Antifungal activity MIC [6]: 4 µg/mL
- Hemotoxi EH50 [7]: >100 µg/mL
- IC50 (cytotoxic activity) [8]: >100 µg/mL
- IC50 (cytotoxic activity) [9]: >100 µg/mL
- IC50 (cytotoxic activity) [10]: >100 µg/mL

Compound: CCCN(CC1(O)OCC(O)C(O)C1O)C1C(O)C(C)OC(OC2C=CC=CC=CC=CC=CC=CC=CC(C)C(O)C(C)C(C)OC(=O)CC(O)CC(O)CCC(O)C(O)CC(O)CC3(O)CC(O)C(C(=O)O)C(C2)O3)C1O (stereo not drawn) [Compound A16, N-fructosyl-N-n-propylamphotericin B]
- IC50 (cytotoxic activity) [8]: >100 µg/mL
- IC50 (cytotoxic activity) [9]: 73.3 ± 1.20 µg/mL (≈ 65 µM)
- IC50 (cytotoxic activity) [10]: 50.1 ± 1.3 µg/mL (≈ 44.4 µM)

Compound: C[C@@H]1[C@H](O)[C@@H](C)/C=C/C=C/C=C/C=C/C=C/C=C/C=C/[C@H](O[C@@H]2O[C@H](C)[C@@H](O)[C@H](NC3CC(=O)N(CCO)C3=O)[C@@H]2O)C[C@@H]2O[C@](O)(C[C@@H](O)C[C@@H](O)[C@H](O)CC[C@@H](O)C[C@@H](O)CC(=O)O[C@H]1C)C[C@H](O)[C@H]2C(=O)O (stereo partly drawn) [Compound A8, N—[N-(2-hydroxyethyl)succinimidyl]amphotericin B]
- Antifungal activity MIC [1]: 4 µg/mL
- Antifungal activity MIC [2]: 4 µg/mL
- Antifungal activity MIC [3]: 4 µg/mL
- Antifungal activity MIC [4]: 8 µg/mL
- Antifungal activity IC50 [5]: 1.36 µg/mL
- Antifungal activity MIC [5]: 4 µg/mL
- Antifungal activity MIC [6]: 8 µg/mL
- Hemotoxi EH50 [7]: >100 µg/mL

Compound: N-D-β-naphtylalanylamphotericin B [Compound A32]
- Antifungal activity MIC [1]: 8 µg/mL
- Antifungal activity MIC [2]: 4 µg/mL
- Antifungal activity MIC [3]: 8 µg/mL
- Antifungal activity MIC [4]: 8 µg/mL
- Antifungal activity IC50 [5]: 3.01 µg/mL
- Antifungal activity MIC [5]: 4 µg/mL
- Antifungal activity MIC [6]: 8 µg/mL
- Hemotoxi EH50 [7]: >100 µg/mL

Compound: C[C@@H]1[C@H](O)[C@@H](C)/C=C/C=C/C=C/C=C/C=C/C=C/C=C/[C@H](O[C@@H]2O[C@H](C)[C@@H](O)[C@H](NCc3ccc(C(C)(C)C)cc3)[C@@H]2O)C[C@@H]2O[C@](O)(C[C@@H](O)C[C@@H](O)[C@H](O)CC[C@@H](O)C[C@@H](O)CC(=O)O[C@H]1C)C[C@H](O)[C@H]2C(=O)O [Compound A21, N-(4-tert-butylbenzyl)amphotericin B]
- Antifungal activity MIC [1]: 4 µg/mL
- Antifungal activity MIC [2]: 2 µg/mL
- Antifungal activity MIC [3]: 4 µg/mL
- Antifungal activity MIC [4]: 4 µg/mL
- Antifungal activity IC50 [5]: 1.58 µg/mL
- Antifungal activity MIC [5]: 4 µg/mL
- Antifungal activity MIC [6]: 4 µg/mL
- Hemotoxi EH50 [7]: >100 µg/mL

Compound: C[C@@H]1[C@H](O)[C@@H](C)/C=C/C=C/C=C/C=C/C=C/C=C/C=C/[C@H](O[C@@H]2O[C@H](C)[C@@H](O)[C@H](NC(=O)[C@@H](N)Cc3ccc(I)cc3)[C@@H]2O)C[C@@H]2O[C@](O)(C[C@@H](O)C[C@@H](O)[C@H](O)CC[C@@H](O)C[C@@H](O)CC(=O)O[C@H]1C)C[C@H](O)[C@H]2C(=O)O [Compound A31, N-L-p-iodophenylalanylamphotericin B]
- Antifungal activity MIC [1]: 4 µg/mL
- Antifungal activity MIC [2]: 4 µg/mL
- Antifungal activity MIC [3]: 4 µg/mL
- Antifungal activity MIC [4]: 8 µg/mL
- Antifungal activity IC50 [5]: 2.52 µg/mL
- Antifungal activity MIC [5]: 4 µg/mL
- Antifungal activity MIC [6]: 8 µg/mL
- Hemotoxi EH50 [7, 11]: >100 µg/mL

Compound: C[C@@H]1[C@H](O)[C@@H](C)/C=C/C=C/C=C/C=C/C=C/C=C/C=C/[C@H](O[C@@H]2O[C@H](C)[C@@H](O)[C@H](NC3CC(=O)N(CC(C)(C)CN(C)C)C3=O)[C@@H]2O)C[C@@H]2O[C@](O)(C[C@@H](O)C[C@@H](O)[C@H](O)CC[C@@H](O)C[C@@H](O)CC(=O)O[C@H]1C)C[C@H](O)[C@H]2C(=O)O (stereo partly drawn) [Compound A7, N-{N-[3-(N,N-dimethylamino)-2,2-dimethylpropyl]succinimidyl}amphotericin B]
- Antifungal activity MIC [1]: 2 µg/mL
- Antifungal activity MIC [2]: 1 µg/mL
- Antifungal activity MIC [3]: 4 µg/mL
- Antifungal activity MIC [4]: 4 µg/mL
- Antifungal activity IC50 [5]: 0.70 µg/mL
- Antifungal activity MIC [5]: 2 µg/mL
- Antifungal activity MIC [6]: 4 µg/mL
- Hemotoxi EH50 [7]: >100 µg/mL

Compound: C[C@@H]1[C@H](O)[C@@H](C)/C=C/C=C/C=C/C=C/C=C/C=C/C=C/[C@H](O[C@@H]2O[C@H](C)[C@@H](O)[C@H](NC(=O)[C@H](N)COC(C)(C)C)[C@@H]2O)C[C@@H]2O[C@](O)(C[C@@H](O)C[C@@H](O)[C@H](O)CC[C@@H](O)C[C@@H](O)CC(=O)O[C@H]1C)C[C@H](O)[C@H]2C(=O)O [Compound A40, N-D-(O-tert-butyl)serylamphotericin B]
- Antifungal activity MIC [1]: 4 µg/mL
- Antifungal activity MIC [2]: 2 µg/mL
- Antifungal activity MIC [3]: 2 µg/mL
- Antifungal activity MIC [4]: 4 µg/mL
- Antifungal activity IC50 [5]: 1.35 µg/mL
- Antifungal activity MIC [5]: 2 µg/mL
- Antifungal activity MIC [6]: 4 µg/mL
- Hemotoxi EH50 [7, 11]: >200 µg/mL
